Assay results as given in ChEMBL document CHEMBL3132769, “Fragment growing to retain or alter the selectivity of anchored kinase hinge-binding fragments” (Medchemcomm, 2014).

How the values were obtained:
[1] = target: Serine/threonine-protein kinase pim-1 (Homo sapiens) (UniProt P11309); assay: Inhibition of human full length PIM1 expressed in baculovirus assessed as substrate phosphorylation using fluorescence-labelled peptides as substrate at 9 uM after 90 mins by microfluidic peptide phosphorylation assay
Serine/threonine-protein kinase pim-1 (Homo sapiens), sequence (P11309 whole entry, looked up, the tested form may be a part): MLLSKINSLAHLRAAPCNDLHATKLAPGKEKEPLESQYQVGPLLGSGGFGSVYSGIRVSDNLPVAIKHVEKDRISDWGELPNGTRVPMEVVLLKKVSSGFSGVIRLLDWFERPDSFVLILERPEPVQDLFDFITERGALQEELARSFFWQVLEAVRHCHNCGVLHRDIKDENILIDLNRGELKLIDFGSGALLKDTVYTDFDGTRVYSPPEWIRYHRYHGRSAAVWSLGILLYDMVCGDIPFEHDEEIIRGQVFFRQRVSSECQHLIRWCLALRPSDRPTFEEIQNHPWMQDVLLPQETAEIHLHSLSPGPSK

[2] = target: Insulin receptor (Homo sapiens) (UniProt P06213); assay: Inhibition of human INSR catalytic domain expressed in baculovirus assessed as substrate phosphorylation using fluorescence-labelled peptides as substrate at 0.06 uM after 90 mins by microfluidic peptide phosphorylation assay
[3] = target: Tyrosine-protein kinase ABL1 (Homo sapiens) (UniProt P00519); assay: Inhibition of human full-length ABL expressed in baculovirus assessed as substrate phosphorylation using fluorescence-labelled peptides as substrate at 0.06 uM after 90 mins by microfluidic peptide phosphorylation assay
[4] = target: Rho-associated protein kinase 2 (Homo sapiens) (UniProt O75116); assay: Inhibition of human ROCK2 catalytic domain expressed in baculovirus assessed as substrate phosphorylation using fluorescence-labelled peptides as substrate at […] after 90 mins by microfluidic peptide phosphorylation assay
Rho-associated protein kinase 2 (Homo sapiens), sequence (O75116 whole entry, looked up, the tested form may be a part): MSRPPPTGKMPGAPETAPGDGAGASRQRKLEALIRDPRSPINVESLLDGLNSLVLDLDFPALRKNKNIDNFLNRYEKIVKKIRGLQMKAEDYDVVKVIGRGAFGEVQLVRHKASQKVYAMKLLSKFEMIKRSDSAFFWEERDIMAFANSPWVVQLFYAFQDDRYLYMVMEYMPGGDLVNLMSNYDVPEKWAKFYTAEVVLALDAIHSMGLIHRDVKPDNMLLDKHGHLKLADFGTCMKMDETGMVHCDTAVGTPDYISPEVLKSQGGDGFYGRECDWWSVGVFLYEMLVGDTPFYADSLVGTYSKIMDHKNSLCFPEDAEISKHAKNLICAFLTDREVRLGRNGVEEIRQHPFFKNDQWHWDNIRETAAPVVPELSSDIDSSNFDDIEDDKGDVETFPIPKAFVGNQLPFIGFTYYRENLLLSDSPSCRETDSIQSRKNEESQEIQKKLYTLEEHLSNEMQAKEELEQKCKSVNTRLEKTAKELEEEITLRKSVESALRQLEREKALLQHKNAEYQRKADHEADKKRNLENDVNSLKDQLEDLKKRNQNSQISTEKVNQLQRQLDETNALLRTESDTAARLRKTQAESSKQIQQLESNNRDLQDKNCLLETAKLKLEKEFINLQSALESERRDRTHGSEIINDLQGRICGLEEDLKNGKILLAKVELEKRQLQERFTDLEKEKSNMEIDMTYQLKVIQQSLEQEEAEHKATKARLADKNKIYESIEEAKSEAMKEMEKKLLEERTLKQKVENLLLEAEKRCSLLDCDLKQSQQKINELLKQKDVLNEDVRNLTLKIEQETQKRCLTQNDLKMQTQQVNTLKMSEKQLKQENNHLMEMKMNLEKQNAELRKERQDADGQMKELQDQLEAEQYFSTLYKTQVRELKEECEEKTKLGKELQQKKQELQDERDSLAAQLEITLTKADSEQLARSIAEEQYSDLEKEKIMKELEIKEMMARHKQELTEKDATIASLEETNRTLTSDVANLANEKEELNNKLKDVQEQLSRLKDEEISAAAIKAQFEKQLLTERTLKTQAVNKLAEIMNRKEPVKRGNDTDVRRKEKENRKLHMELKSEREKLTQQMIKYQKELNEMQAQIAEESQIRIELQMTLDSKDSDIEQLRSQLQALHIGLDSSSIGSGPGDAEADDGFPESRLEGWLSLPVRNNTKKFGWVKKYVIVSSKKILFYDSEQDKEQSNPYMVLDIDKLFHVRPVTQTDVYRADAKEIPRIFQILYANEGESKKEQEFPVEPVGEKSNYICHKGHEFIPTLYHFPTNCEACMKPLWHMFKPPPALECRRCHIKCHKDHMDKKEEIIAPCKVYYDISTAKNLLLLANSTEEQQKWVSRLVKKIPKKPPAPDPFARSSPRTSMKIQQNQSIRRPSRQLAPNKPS

[5] = target: Aurora kinase B (Homo sapiens) (UniProt Q96GD4); assay: Inhibition of human full length AurB expressed in baculovirus assessed as substrate phosphorylation using fluorescence-labelled peptides as substrate at […] after 90 mins by microfluidic peptide phosphorylation assay
Aurora kinase B (Homo sapiens), sequence (Q96GD4 whole entry, the tested form may be a part): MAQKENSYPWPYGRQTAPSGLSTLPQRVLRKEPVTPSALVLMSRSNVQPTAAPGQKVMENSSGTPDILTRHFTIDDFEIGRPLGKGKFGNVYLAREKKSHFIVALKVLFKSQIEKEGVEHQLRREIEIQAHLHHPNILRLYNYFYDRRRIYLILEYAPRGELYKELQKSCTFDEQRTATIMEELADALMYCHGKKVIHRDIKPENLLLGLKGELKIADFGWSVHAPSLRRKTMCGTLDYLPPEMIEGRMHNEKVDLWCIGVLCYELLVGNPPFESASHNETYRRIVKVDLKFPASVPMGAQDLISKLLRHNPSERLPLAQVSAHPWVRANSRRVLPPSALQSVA

[6] = tested on: T1, Receptor-type tyrosine-protein kinase FLT3 (Homo sapiens), P36888 [D835Y]; assay: Inhibition of human FLT3 D835Y mutant catalytic domain expressed in baculovirus assessed as substrate phosphorylation using fluorescence-labelled peptides as substrate at 420 uM after 90 mins by microfluidic peptide phosphorylation assay
T1 sequence (whole entry): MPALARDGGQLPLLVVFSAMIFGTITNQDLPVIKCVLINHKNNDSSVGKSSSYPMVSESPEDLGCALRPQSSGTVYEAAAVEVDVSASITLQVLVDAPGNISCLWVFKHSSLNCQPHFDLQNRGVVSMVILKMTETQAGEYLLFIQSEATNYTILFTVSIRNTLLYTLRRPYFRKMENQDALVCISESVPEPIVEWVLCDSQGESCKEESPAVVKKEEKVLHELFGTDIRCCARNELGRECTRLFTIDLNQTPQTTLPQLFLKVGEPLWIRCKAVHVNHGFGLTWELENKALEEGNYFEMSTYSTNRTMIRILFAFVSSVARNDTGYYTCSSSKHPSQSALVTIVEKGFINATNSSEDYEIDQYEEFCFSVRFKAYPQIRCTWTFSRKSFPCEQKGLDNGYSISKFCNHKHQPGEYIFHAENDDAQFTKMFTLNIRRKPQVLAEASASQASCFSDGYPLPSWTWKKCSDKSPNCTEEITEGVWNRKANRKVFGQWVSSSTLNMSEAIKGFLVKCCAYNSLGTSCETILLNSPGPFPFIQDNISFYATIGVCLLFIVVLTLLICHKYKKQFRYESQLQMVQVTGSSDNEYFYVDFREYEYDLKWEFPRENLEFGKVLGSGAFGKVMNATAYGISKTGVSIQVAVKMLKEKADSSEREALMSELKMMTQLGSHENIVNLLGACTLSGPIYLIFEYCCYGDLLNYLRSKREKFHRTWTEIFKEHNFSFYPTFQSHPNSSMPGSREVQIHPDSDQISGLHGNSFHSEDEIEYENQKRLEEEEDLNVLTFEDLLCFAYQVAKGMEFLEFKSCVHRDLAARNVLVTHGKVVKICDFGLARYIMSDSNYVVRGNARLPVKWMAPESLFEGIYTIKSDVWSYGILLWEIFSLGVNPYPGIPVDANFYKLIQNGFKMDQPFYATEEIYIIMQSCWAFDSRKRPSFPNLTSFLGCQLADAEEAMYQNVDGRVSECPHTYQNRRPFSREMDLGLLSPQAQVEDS

[7] = target: Proto-oncogene tyrosine-protein kinase Src (Homo sapiens) (UniProt P12931); assay: Inhibition of human full length SRC expressed in baculovirus assessed as substrate phosphorylation using fluorescence-labelled peptides as substrate at 420 uM after 90 mins by microfluidic peptide phosphorylation assay
Proto-oncogene tyrosine-protein kinase Src (Homo sapiens), sequence (P12931 2-536 limits assumed): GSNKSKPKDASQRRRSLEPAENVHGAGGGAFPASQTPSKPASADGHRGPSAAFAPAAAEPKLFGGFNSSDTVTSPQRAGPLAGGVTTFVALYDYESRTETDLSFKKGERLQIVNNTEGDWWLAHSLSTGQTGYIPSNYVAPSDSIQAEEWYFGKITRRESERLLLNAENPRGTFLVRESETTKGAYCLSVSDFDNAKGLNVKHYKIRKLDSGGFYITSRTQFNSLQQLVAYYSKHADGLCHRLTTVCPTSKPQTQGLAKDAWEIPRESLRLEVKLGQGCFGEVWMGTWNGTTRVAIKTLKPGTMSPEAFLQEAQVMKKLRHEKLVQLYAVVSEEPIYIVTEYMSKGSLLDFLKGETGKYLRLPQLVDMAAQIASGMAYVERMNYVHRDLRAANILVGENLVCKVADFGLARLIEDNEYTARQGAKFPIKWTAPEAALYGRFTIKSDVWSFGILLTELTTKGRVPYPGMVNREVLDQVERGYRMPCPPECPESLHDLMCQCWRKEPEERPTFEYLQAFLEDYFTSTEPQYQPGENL

[8] = species on record: Homo sapiens; assay: Inhibition of human P70S6K catalytic domain expressed in baculovirus assessed as substrate phosphorylation using fluorescence-labelled peptides as substrate at 0.2 uM after 90 mins by microfluidic peptide phosphorylation assay
[9] = target: Protein kinase C beta type (Homo sapiens) (UniProt P05771); assay: Inhibition of human truncated PKC beta1 expressed in baculovirus assessed as substrate phosphorylation using fluorescence-labelled peptides as substrate at 0.2 uM after 90 mins by microfluidic peptide phosphorylation assay
Protein kinase C beta type (Homo sapiens), sequence (P05771 2-671 limits assumed): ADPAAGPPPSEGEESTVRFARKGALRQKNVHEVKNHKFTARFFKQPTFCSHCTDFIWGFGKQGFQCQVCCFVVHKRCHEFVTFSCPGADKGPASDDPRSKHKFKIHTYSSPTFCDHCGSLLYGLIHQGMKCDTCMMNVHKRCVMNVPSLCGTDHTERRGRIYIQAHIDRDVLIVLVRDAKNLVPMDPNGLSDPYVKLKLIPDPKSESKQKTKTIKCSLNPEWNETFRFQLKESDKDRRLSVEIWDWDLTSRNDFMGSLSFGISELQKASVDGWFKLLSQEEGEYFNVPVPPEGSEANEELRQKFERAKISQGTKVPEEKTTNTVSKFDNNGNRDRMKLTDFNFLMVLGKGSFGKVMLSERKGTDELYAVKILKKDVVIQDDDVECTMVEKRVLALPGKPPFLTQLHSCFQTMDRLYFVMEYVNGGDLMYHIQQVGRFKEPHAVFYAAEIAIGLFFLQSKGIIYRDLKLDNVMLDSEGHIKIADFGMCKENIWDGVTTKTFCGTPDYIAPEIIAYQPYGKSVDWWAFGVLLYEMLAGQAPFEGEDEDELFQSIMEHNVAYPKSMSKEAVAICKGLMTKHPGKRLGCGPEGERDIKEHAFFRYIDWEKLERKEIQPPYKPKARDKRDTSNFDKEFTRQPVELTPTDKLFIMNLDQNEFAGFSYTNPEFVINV

[10] = target: T2, Serine/threonine-protein kinase Nek2 (Homo sapiens) (UniProt P51955); assay: Inhibition of human full length NEK2 expressed in baculovirus assessed as substrate phosphorylation using fluorescence-labelled peptides as substrate at 2 uM after 90 mins by microfluidic peptide phosphorylation assay
T2 sequence (whole entry): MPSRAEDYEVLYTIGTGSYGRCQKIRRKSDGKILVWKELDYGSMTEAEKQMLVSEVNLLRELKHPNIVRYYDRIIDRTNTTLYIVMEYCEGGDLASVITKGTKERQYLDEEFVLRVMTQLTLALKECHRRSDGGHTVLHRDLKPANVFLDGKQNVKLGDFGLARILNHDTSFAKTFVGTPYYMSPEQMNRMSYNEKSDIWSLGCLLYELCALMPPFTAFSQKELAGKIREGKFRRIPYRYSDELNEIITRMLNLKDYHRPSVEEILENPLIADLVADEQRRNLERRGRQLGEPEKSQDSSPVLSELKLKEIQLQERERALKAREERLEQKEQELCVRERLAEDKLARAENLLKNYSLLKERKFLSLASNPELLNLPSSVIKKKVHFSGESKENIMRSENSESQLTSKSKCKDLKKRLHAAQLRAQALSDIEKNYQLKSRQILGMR

[11] = target: T3, Testis-specific serine/threonine-protein kinase 2 (Homo sapiens) (UniProt Q96PF2); assay: Inhibition of human full length TSSK2 expressed in baculovirus assessed as substrate phosphorylation using fluorescence-labelled peptides as substrate at 2 uM after 90 mins by microfluidic peptide phosphorylation assay
T3 sequence (whole entry): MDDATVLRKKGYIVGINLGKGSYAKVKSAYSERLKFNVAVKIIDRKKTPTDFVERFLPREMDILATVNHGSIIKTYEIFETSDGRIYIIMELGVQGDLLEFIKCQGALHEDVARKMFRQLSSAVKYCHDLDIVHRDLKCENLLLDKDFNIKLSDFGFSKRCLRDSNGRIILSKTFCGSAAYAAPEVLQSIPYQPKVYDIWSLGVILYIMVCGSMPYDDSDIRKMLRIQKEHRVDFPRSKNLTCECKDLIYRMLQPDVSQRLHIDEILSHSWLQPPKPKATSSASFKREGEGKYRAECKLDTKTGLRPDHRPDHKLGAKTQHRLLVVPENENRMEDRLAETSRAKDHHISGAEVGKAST

[12] = target: Ribosomal protein S6 kinase alpha-2 (Homo sapiens) (UniProt Q15349); assay: Inhibition of human full length RSK3 expressed in baculovirus assessed as substrate phosphorylation using fluorescence-labelled peptides as substrate at 1000 uM after 90 mins by microfluidic peptide phosphorylation assay
Ribosomal protein S6 kinase alpha-2 (Homo sapiens), sequence (Q15349 whole entry): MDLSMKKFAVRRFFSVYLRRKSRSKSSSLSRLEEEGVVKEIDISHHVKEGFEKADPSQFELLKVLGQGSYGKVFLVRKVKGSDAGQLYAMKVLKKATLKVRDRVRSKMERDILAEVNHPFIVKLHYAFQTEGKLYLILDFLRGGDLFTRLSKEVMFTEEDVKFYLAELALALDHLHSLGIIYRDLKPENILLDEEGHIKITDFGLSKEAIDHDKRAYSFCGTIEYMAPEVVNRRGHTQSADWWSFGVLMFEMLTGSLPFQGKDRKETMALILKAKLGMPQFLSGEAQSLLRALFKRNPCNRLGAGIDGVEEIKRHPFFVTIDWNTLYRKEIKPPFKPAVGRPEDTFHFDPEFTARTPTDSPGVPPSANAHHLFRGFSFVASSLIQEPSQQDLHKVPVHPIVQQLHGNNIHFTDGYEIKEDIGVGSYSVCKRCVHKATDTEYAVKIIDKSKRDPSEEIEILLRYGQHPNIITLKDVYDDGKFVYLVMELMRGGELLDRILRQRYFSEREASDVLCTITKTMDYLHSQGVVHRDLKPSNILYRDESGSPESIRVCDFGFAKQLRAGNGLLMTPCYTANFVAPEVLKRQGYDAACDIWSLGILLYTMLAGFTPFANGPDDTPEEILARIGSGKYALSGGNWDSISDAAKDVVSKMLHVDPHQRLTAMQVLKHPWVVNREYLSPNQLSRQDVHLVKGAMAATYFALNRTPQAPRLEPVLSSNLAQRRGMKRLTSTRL

`NCC1CN(c2ncnc3[nH]c4cnccc4c23)CCO1` (configuration not stated) showed an inhibition [1] of 36.5%.

In the case of `NC1(Cc2ccc(Cl)cc2)CCN(c2ncnc3[nH]ccc23)CC1`, the inhibition [2] was 6% and the inhibition [3] was 13%.

`COC(=O)c1cnc(Nc2cnc(C#N)cn2)cc1NCC1CCNCC1` showed an inhibition [4] of 2% and an inhibition [5] of 4%.

`c1nc(N2CCOCC2)c2nc[nH]c2n1` showed an inhibition [6] of 93% and an inhibition [7] of 62.5%.

Compound `Clc1ccc(C2(c3ccc(-c4ncnc5[nH]cnc45)cc3)CCNCC2)cc1` has an inhibition [8] of 87.5% and an inhibition [9] of 53%.

In the case of `NC1CCN(c2ncnc3[nH]ccc23)CC1`, the inhibition [10] was 0% and the inhibition [11] was 6.5%.

`c1cnc2[nH]ccc2c1` gave an inhibition [12] of 71%.
